The source of these data is paper PMC7961380, “A Systematic Study of the In Vitro Pharmacokinetics and Estimated Human In Vivo Clearance of Indole and Indazole-3-Carboxamide Synthetic Cannabinoid Receptor Agonists Detected on the Illicit Drug Market” (Molecules, 2021).

The conditions of data set [1]: HLM, ref 14 (THJ-018, THJ-2201), 15 (NNEI, MN-18), 106 (NM-2201), 107 (BIM-2201), 108 (STS-135), 16 (AB-PINACA, 5F-AB-PINACA), 54 (5F-MDMB-PINACA), 69 (AB-FUBINACA), 17 (ADB-FUBINACA), 97 (FDU-PB-22, FUB-PB-22), cited from earlier work; for CLint micr / t1/2: 95 (Cumyl-PICA, 5F-Cumyl-PICA), 109 (5F-APP-PICA, 5F-APP-PINACA; for CLint micr: 73 (5F-AMB-PINACA); for t1/2 / CLint: 57 (AMB-4en-PICA); for t1/2: 73 (AMB-PINACA, 5F-AMB-PINACA).

Data set [2] in a line: Metabolic stability, pooled human liver microsome incubations. The method, then:
Total incubation volume was 500 µL. Procedure: Test compound working solutions (50 µM in potassium phosphate buffer (pH 7.4)) were prepared (<1% DMSO). pHLM were thawed and diluted in potassium phosphate buffer (pH 7.4). […] Reactions were quenched in 200 µL ACN spiked with donepezil (IS, 50 ng mL^−1). […] Samples were analysed by UPLC-MS/MS in a 96 deep-well 2 mL plate. Each SCRA was incubated at least in triplicate but additional incubations were carried out across a number of analytical batches, giving greater replication and a greater understanding of system variability. Microsomal scaling factors used for human liver microsome incubations in the literature vary. Intrinsic clearance and predicted in vivo clearance rates calculated using alternative scaling factors found in the literature is provided in Section S6 of the supplementary information, to aid comparison of data between publications.
Equations used for in vitro intrinsic clearance calculation and human in vivo clearance […]
The equations used for in vitro intrinsic clearance calculation and human in vivo clearance estimation […]
Microsomal clearance (HLM incubations) in mL min-1 mg microsomal protein-1 [3]
Intrinsic clearance (whole-liver dimensions) (HLM incubations) in mL min-1 kg-1 [3] CL = k x V x [Liver](g) x SF Eqn. 7 […]
mg g microsomal protein-1 [7]
Intrinsic clearance (whole-liver dimensions) (HHep incubations) in mL min-1 kg-1 [4] CL = k x V x hepatocytes/g liver x [Liver](g) Eqn. 8 […]
Where: hepatocytes/g liver = 107x10^6 cells/g liver
Hepatic clearance in mL min-1 kg-1 [3]
[…] Eqn. 9
Where: Q = hepatic blood flow, 21 mL min-1 kg-1 [9]; fu = fraction unbound (plasma); CLint = […]
Estimated human hepatic extraction ratio [5]
Intrinsic clearance data – pooled human liver microsome incubations […]
table S4-28. Intrinsic clearance and predicted in vivo data calculated using alternative microsomal scaling factors found in the literature – 32 [10] and 45 [11] mg microsomal protein per gram liver – are provided in tables S29 and S30, respectively.

The test system of data set [3] is pooled human cryopreserved hepatocytes (pHHeps). Put plainly: Metabolic stability, pooled human cryopreserved hepatocyte incubations.
Data set [4] in a line: Plasma protein binding by equilibrium dialysis. The note with it: human, pooled human plasma, pH 7.4, equilibrium dialysis 5 h, 37 °C, 10 µg mL^−1; read-out: PPB (%) (converted). Type of data set: in vitro ADME, human. Here is the method: Plasma protein binding was assessed by equilibrium dialysis in a 96-well dialysis block (HTDialysis, Ledyard, CT, USA). Dialysis membranes (12–14 kDa) were soaked in deionised water for at least 60 min. Membranes were soaked overnight at 4 °C in ethanol:water 20:80% v/v and then rinsed with deionised water immediately prior to use. […] Spiked plasma (150 µL) was dialysed against isotonic phosphate buffer (pH 7.4) (150 µL) for 5 h at 37 °C with shaking at 100 rpm. Thermal degradation controls for each test compound were kept at 37 °C and 4 °C. Blank control plasma and buffer were included in the incubation. Following incubation, dialysed plasma samples and thermal degradation controls (50 µL) were added to drug-free buffer (50 µL), and dialysed buffer samples (50 µL) were added to drug-free plasma (50 µL). […] Supernatant (150 µL) was added to 50 µL deionised water and samples were analysed by UPLC-MS/MS as described above. Dialysed buffer from each well was tested for protein contamination using BCA protein assay reagent to determine whether membranes had been compromised.
Bu = Analyte/IS ratio determined in buffer side (2) Fraction unbound, fu=(100−% bound)/100

Setting [5] is: pHLM, scaling factor 32 mg microsomal protein per gram liver.
Where [6] appears, read: pHLM, scaling factor 45 mg microsomal protein per gram liver.
[7] abbreviates: pHHeps, 99x10^6 hepatocytes per gram liver.

Structures are written as SMILES.

For `NC(=O)[C@H](Cc1ccccc1)NC(=O)c1nn(CC2CCCCC2)c2ccccc12`, in data set [1], the CLint micr is 133 µL/min/mg and the t1/2 is 5.2 min.

Consider `NC(=O)[C@H](Cc1ccccc1)NC(=O)c1nn(CCCCCF)c2ccccc12` [5F-APP-PINACA], for which, in data set [1], the CLint micr is 202 µL/min/mg and the t1/2 is 3.4 min.

Consider `CC(C)(NC(=O)c1cn(CCCCCF)c2ccccc12)c1ccccc1` [5F-Cumyl-PICA], for which, in data set [1], the CLint micr was 390 µL/min/mg and the t1/2 is reported as 1.77 min.

Regarding `CC(C)[C@H](NC(=O)c1nn(CC2CCCCC2)c2ccccc12)C(N)=O` [(S)-AB-[…] (11)] [N-[1-amino-3-methyl-1-oxobutan-2-yl]-1-(cyclohexylmethyl)-1H-indazole-3-carboxamide], the “Predicted In Vivo Hepatic Clearance, CLH” value in data set [2] (from pHLM CLint, well-stirred model with plasma fu, Q 21 mL min^−1 kg^−1) was 1.77 ± 0.17 mL/min/kg; in data set [3] (from pHHeps CLint, well-stirred model with plasma fu, Q 21 mL min^−1 kg^−1), 4.52 ± 1.12 mL/min/kg. Further, the “Hepatic extraction ratio, EH” value worked out at 0.08 ± 0.008 in data set [2] (from pHLM incubations); 0.05 ± 0.005 in data set [2] (setting [5]); 0.08 ± 0.007 in data set [2] (setting [6]); 0.22 ± 0.053 in data set [3] (from pHHeps incubations); 0.20 ± 0.051 in data set [3] (setting [7]). In addition, the “% parent compound remaining, Average” value was determined as 76.2% in data set [2] (pHLM, 3 min); 76.7% in data set [2] (pHLM, 6 min); 70.6% in data set [2] (pHLM, 9 min); 61.7% in data set [2] (pHLM, 15 min); 45.8% in data set [2] (pHLM, 30 min); 96.9% in data set [3] (pHHeps, 3 min). Besides, the “% parent compound remaining, Average” value in data set [3] (pHHeps, 6 min) is given as 85.7%; in data set [3] (pHHeps, 9 min) it was 81.8%; in data set [3] (pHHeps, 15 min) it was 88.6%; in data set [3] (pHHeps, 30 min), 65.5%; in data set [3] (pHHeps, 45 min) it was 63.2%; in data set [3] (pHHeps, 60 min) it was 53.4%. Besides, in data set [2] (pHLM, n ≥ 3 ± SD), the “Microsomal Intrinsic Clearance, CLint micr” value is 0.051 ± 0.005 mL min^−1 mg Microsomal Protein^−1. Besides, the “Predicted in vivo hepatic clearance, CLH” value in data set [2] (setting [5]) was 1.12 ± 0.11 mL/min/kg; in data set [2] (setting [6]), 1.54 ± 0.15 mL/min/kg; in data set [3] (setting [7]), 4.26 ± 1.08 mL/min/kg.

For the compound `CCCCCn1nc(C(=O)N[C@H](C(N)=O)C(C)C)c2ccccc21` [AB-PINACA], in data set [1], the CLint micr is 37 µL/min/mg, the t1/2 was 18.7 min and the CLint was 35 mL/min/kg.

For the compound `CCCCCn1nc(C(=O)N[C@H](C(=O)OC)C(C)C)c2ccccc21` [AMB-PINACA, methyl (1-pentyl-1H-indazole-3-carbonyl)valinate], the t1/2 in data set [1] is 1.1 min.

Consider `O=C(c1cccc2ccccc12)c1nc2ccccc2n1CCCCCF` [BIM-2201], for which, in data set [1], the CLint micr is 142 µL/min/mg, the t1/2 is reported as 4.9 min and the CLint is 134.1 mL/min/kg.

As to `CC(C)[C@H](NC(=O)c1nn(CCCCCF)c2ccccc12)C(N)=O` [Compound 5F-AB-PINACA], in data set [1], the CLint micr was 19 µL/min/mg, the t1/2 is listed as 35.9 min and the CLint is 18 mL/min/kg.

In the case of `NC(=O)[C@H](Cc1ccccc1)NC(=O)c1cn(CCCCCF)c2ccccc12` [Compound 5F-APP-PICA], in data set [1], the CLint micr was 46 µL/min/mg and the t1/2 is on record as 15.1 min.

For the compound `CCCCCn1cc(C(=O)NC(C)(C)c2ccccc2)c2ccccc21` [Cumyl-PICA, 1-pentyl-N-(2-phenylpropan-2-yl)-1H-indole-3-carboxamide], in data set [1], the CLint micr is 120 µL/min/mg and the t1/2 is reported as 5.92 min.

Turning to `O=C(Oc1cccc2ccccc12)c1cn(Cc2ccc(F)cc2)c2ccccc12` [FDU-PB-22], in data set [1], the CLint micr was 56 µL/min/mg, the t1/2 is on record as 12.4 min and the CLint was 52.7 mL/min/kg.

As for `O=C(Oc1cccc2cccnc12)c1cn(Cc2ccc(F)cc2)c2ccccc12` [FUB-PB-22], in data set [1], the CLint micr was 60 µL/min/mg, the t1/2 is listed as 11.5 min and the CLint is 57.1 mL/min/kg.

On to `CCCCCn1nc(C(=O)Nc2cccc3ccccc23)c2ccccc21` [MN-18], for which, in data set [1], the CLint micr was 410 µL/min/mg, the t1/2 is reported as 1.71 min and the CLint was 469 mL/min/kg.

Consider `O=C(Oc1cccc2ccccc12)c1cn(CCCCCF)c2ccccc12` [NM-2201], for which, in data set [1], the CLint micr was 88 µL/min/mg, the t1/2 is recorded as 8.0 min and the CLint was 81.6 mL/min/kg.

For the compound `CCCCCn1cc(C(=O)Nc2cccc3ccccc23)c2ccccc21` [NNEI], in data set [1], the CLint micr is 300 µL/min/mg, the t1/2 is reported as 2.29 min and the CLint is 350 mL/min/kg.

Turning to `O=C(NC12CC3CC(CC(C3)C1)C2)c1cn(CCCCCF)c2ccccc12` [STS-135, N-(adamantan-1-yl)-1-(5-fluoropentyl)-1H-indole-3-carboxamide], in data set [1], the CLint micr was 222 µL/min/mg, the t1/2 is on record as 3.1 min and the CLint is 209 mL/min/kg.

Turning to `CCCCCn1nc(C(=O)c2cccc3ccccc23)c2ccccc21` [THJ-018], in data set [1], the CLint micr is 36 µL/min/mg, the t1/2 is reported as 19.2 min and the CLint is 34.2 mL/min/kg.

For `O=C(c1cccc2ccccc12)c1nn(CCCCCF)c2ccccc12` [THJ-2201], in data set [1], the CLint micr was 64 µL/min/mg, the t1/2 is given as 10.8 min and the CLint is 60.8 mL/min/kg.

For `COC(=O)C1=C(C)NC(C)=C(C(=O)OCCN(C)Cc2ccccc2)C1c1cccc([N+](=O)[O-])c1` (centres unmarked) [nicardipine, reference compound], in data set [4], the fraction unbound at 5 h, 10 µg mL^−1 was 0.023.
